SMILES strings stand for the structures.

This assay deals with T1, human 5HT2A receptor (Homo sapiens, UniProt P28223).
T1 construct: expressed in transfected cells
T1 sequence (P28223 whole entry): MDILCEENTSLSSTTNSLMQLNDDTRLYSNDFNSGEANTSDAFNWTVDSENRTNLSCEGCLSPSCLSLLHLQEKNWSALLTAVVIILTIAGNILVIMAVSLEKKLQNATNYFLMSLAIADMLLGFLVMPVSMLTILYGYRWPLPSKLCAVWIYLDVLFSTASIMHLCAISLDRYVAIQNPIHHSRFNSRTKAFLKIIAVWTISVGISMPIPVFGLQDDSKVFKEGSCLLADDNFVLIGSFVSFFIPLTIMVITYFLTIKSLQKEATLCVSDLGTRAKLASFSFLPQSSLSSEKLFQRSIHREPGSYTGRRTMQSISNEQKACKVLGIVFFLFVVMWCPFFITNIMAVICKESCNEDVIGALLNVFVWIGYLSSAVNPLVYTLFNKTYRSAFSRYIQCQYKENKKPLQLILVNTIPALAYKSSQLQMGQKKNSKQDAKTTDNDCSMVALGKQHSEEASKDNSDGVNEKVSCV
As to the kind of experiment: Receptor Binding Assay, 5HT2A ([3H]N-methyl spiperone). The settings on record: BHK cells expressing human 5HT2A receptor, 2.5 nM [3H]N-methyl spiperone, 37° C. As for the experimental part:
Cell Culture: BHK cells stably expressing the human 5HT2A receptor were maintained in Dulbecco's Modified Eagle's Medium supplemented with […] Geneticin, 1% Sodium Pyruvate, 1% Pen-Strep and 10% Fetal Calf Serum, and treated with 5 mM sodium butyrate for 24 h to increase receptor expression before harvesting. Cells were harvested by mechanical scraping, washed with Phosphate Buffered Saline, and stored at −80° C. in 10% DMSO in 1 mg/mil aliquots until used. Protein determination was made according to Lowry.
Receptor Binding Assays: The 5HT2A and D2L assays were conducted at 37° C. in a Tris buffer containing salts (50 mM Tris Buffer, pH 7.7; 120 mM NaCl; 5 mM KCl; 2 mM CaCl2; 1 mM MgCl2). Cell membranes (previously prepared and frozen) were rapidly thawed. Membranes were diluted to an appropriate concentration (to produce 100 μg protein/assay point for 5HT2A, and 58 μg protein/assay point for D2L) in Tris buffer and homogenized. Assays were conducted on 96-well plates, using 2.5 and 1 nM [^3H]N-methyl spiperone as radioligand for 5HT2A and D2L assays, respectively. Plates were incubated at 37° C. in a shaking water bath for 30 and 60 min, for 5HT2A and D2L, respectively. Nonspecific binding was defined using 100 μM methylsergide and eticlopride, for 5HT2A and D2L, respectively.
Assays were terminated by rapid filtration through Millipore MAFB or MAFC (5HT2C) filter plates (presoaked in 50 mM Tris HCl, pH 7.7, with 0.1% Brij) using a Millipore Cell Harvester. The filter plates were then washed with ice-cold 50 mM Tris buffer, pH 7.7, and allowed to dry overnight. 50 μl of Microscint scintillation cocktail were added and the plates were counted in a Packard Topcount scintillation counter.
IC50 and Ki calculations were performed using nonlinear regression one-site competition analysis (GraphPad, Prism), with top and bottom limits held constant at 0% and 100% inhibition, respectively. The percent inhibition at each drug concentration was the average of duplicate determinations. Except where indicated, each determination was performed 2 to 5 times.
For `CN(C)CCN(Cc1ccccc1)Cc1cccc(-c2ccc3[nH]ccc3c2)c1` [Example 1, N-Benzyl-N-[3-(1H-indol-5-yl)-benzyl]-N′,N′-dimethyl-ethane-1,2-diamine], the inhibition constant Ki (in general, a measure of affinity in units of concentration, obtained from inhibition or displacement) worked out at 10.8 nM.

`CN(C)CCN(Cc1ccccc1)Cc1cccc(-c2ccc3[nH]c(=O)sc3c2)c1` [Example 2] yielded a Ki of 2.4 nM.

`CN(C)CCN(Cc1ccccc1)Cc1cccc(-c2ccc3[nH]c(=O)n(C)c(=O)c3c2)c1` [Example 4] had a Ki of 33.5 nM.

With `CN(C)CCN(Cc1ccccc1)Cc1cccc(-c2ccc3[nH]c(=O)[nH]c3c2)c1` [Example 5], affinity was put at a Ki of 218 nM.

`CN(C)CCN(Cc1ccccc1)Cc1cccc(-c2ccc3[nH]ncc3c2)c1` [Example 6] displayed a Ki of 2.7 nM.

As to `CN(C)CCN(Cc1ccccc1)Cc1cccc(-c2cnc3c(c2)OCC(=O)N3)c1` [Example 7], the Ki worked out at 210 nM.

`CN1CCN(Cc2cccc(-c3ccc4[nH]c(=O)oc4c3)c2)CC1` [Example 8] gave a Ki of 35.4 nM.

The molecule `CN1CCN(Cc2cccc(-c3ccc4[nH]nnc4c3)c2)CC1` [Example 9] returned a Ki of 227 nM.

In the case of `CN1CCN(Cc2cc(-c3ccc4[nH]ccc4c3)ccc2F)C(c2cccnc2)C1` (centres unmarked) [Example 10], the inhibitory constant (Ki) turned out to be 13.8 nM.

In the case of `CN1CCN(Cc2cc(-c3ccc4[nH]c(=O)oc4c3)co2)[C@H](c2ccc(F)cc2)C1` [Example 11], affinity was put at a Ki of 16.2 nM.

`CN1CCN(Cc2cc(-c3ccc4[nH]ccc4c3)ccc2F)C(c2ccccn2)C1` (centres unmarked) [Example 13]: the affinity, expressed as Ki, was 3.3 nM.

The molecule `CN1CCN(Cc2ccc(-c3ccc4[nH]c(=O)oc4c3)o2)[C@@H](c2ccc(F)cc2)C1` [Example 14] returned a Ki of 1.4 nM.

`CN1CCN(Cc2cc(-c3ccc4[nH]ccc4c3)ccc2F)C(c2ccc(C(F)(F)F)cc2)C1` (centres unmarked) [Example 15] had a Ki of 13.8 nM.

Take `CN(C)CCCN(Cc1ccccc1)Cc1cccc(-c2ccc3[nH]nnc3c2)c1` [Example 17, N-[3-(1H-Benzotriazol-5-yl)-benzyl]-N-benzyl-N′,N′-dimethyl-propane-1,3-diamine]: the Ki came out at 7.2 nM.

As for `CN(C)CCN(Cc1ccccc1)Cc1cccc(-c2ccc3[nH]cnc3c2)c1` [Example 18], the affinity corresponds to a Ki of 74.8 nM.

`CN(C)CCCN(Cc1ccccc1)Cc1cccc(-c2ccc3[nH]cnc3c2)c1` [Example 19]: the inhibition constant Ki is 76.5 nM.

`CN(C)CCN(Cc1cccc(-c2ccc3[nH]c(=O)oc3c2)c1)C(=O)c1ccccc1` [Example 24] showed a Ki of 0.56 nM.

The molecule `CCN1CCCC1CN(Cc1cc(-c2ccc3[nH]c(=O)oc3c2)ccc1F)C(=O)c1ccc(F)cc1` (centres unmarked) [Example 25] gave a Ki of 0.6 nM.

As for `CN1CCC(N(Cc2cccc(-c3ccc4[nH]ccc4c3)c2)C(=O)c2cccs2)CC1` [Example 28], affinity was put at a Ki of 0.7 nM.

Consider `CN1CCC(N(Cc2cc(-c3ccc4[nH]ccc4c3)ccc2F)C(=O)c2cccs2)CC1` [Example 29], for which the Ki is 0.7 nM.

`CN(C)CCN(Cc1cccc(-c2ccc3[nH]c(=O)oc3c2)c1)C(=O)c1ccc(Cl)cc1` [Example 30]: the Ki is 0.77 nM.

With `CCN1CCC[C@@H]1CN(Cc1cc(-c2ccc3[nH]c(=O)oc3c2)ccc1F)C(=O)c1ccc(F)cc1` [Example 31], the Ki was found to be 0.92 nM.

In turn, `CN(C)CCN(Cc1cccc(-c2ccc3[nH]c(=O)sc3c2)c1)C(=O)c1ccccc1` [Example 32] gave a Ki of 1.1 nM.

Consider `CN(C)CCN(Cc1cc(-c2ccc3[nH]ccc3c2)ccc1F)C(=O)c1cccs1` [Example 33], for which the affinity, expressed as Ki, was 1.19 nM.

Take `CN(C)CCN(Cc1cc(-c2ccc3[nH]cc(C#N)c3c2)ccc1F)C(=O)c1ccc(F)cc1` [Example 35]: the affinity corresponds to a Ki of 2.8 nM.

The molecule `CN(C)CCCN(Cc1cccc(-c2ccc3[nH]c(=O)sc3c2)c1)C(=O)c1ccccc1` [Example 36] returned a Ki of 4.1 nM.

`CN(C)CCN(Cc1cccc(-c2ccc3[nH]c(=O)sc3c2)c1)C(=O)c1ccc(Cl)cc1` [Example 37] registered a Ki of 4.1 nM.

As to `O=C(c1ccc(F)cc1)N(Cc1cc(-c2ccc3[nH]ccc3c2)ccc1F)CC12CCN(CC1)CC2` [Example 38], the Ki came to 14.4 nM.

With `O=C(c1ccc(F)cc1)N(CCN1CCCC1)Cc1cncc(-c2ccc3[nH]ccc3c2)c1` [Example 39], the inhibitory constant (Ki) is 1.1 nM.

The molecule `CN1CCC(N(Cc2ccc(F)c(-c3ccc4[nH]ccc4c3)c2)C(=O)c2ccc(F)cc2)CC1` [Example 40] had a Ki of 0.58 nM.

With `O=c1[nH]c2ccc(-c3ccc(F)c(CN4CCNCC4c4cccs4)c3)cc2o1` (centres unmarked) [Example 43], the Ki was 0.6 nM.

As to `Fc1ccc([C@H]2CNCCN2Cc2cc(-c3ccc4[nH]nnc4c3)ccc2F)cc1` [Example 45], the Ki is 0.99 nM.

`CN(C)CCN(Cc1ccc(F)cc1)Cc1cncc(-c2ccc3[nH]c(=O)oc3c2)c1` [Example 48] had a Ki of 0.6 nM.

In the case of `CN(C)CCN(Cc1ccc(F)cc1)Cc1cncc(-c2ccc3[nH]ncc3c2)c1` [Example 49], the Ki is 0.4 nM.

Turning to `CN(C)CCN(Cc1ccc(F)cc1)Cc1cc(-c2ccc3[nH]c(=O)oc3c2)co1` [Example 50], the inhibition constant Ki came out at 2.5 nM.

Molecule `N#Cc1c[nH]c2ccc(-c3ccc(F)c(CN4CCNC[C@@H]4c4ccc(F)cc4)c3)cc12` [Example 51] displayed a Ki of 9.2 nM.

As to `CN1CCN(Cc2cc(-c3ccc4[nH]ccc4n3)ccc2F)[C@@H](c2ccc(F)cc2)C1` [Example 52], the Ki was determined as 3.1 nM.

`CCN1CCC[C@H]1CN(Cc1cc(-c2ccc3[nH]nnc3c2)ccc1F)C(=O)c1ccc(F)cc1` [Example 53, N-[5-(1H-Benzotriazol-5-yl)-2-fluoro-benzyl]-N-(1-ethyl-pyrrolidin-2S-ylmethyl)-4-fluoro-benzamide] had a Ki of 2.13 nM.

The molecule `O=C(c1ccc(F)cc1)N(CCN1CCCC1)Cc1cccc(-c2ccc3[nH]nnc3c2)c1` [Example 54] showed an inhibitory constant (Ki) of 0.9 nM.

`O=C(c1ccc(F)cc1)N(CCN1CCCC1)Cc1cc(-c2ccc3[nH]ncc3c2)ccc1F` [Example 55] showed a Ki of 0.31 nM.

Consider `O=C(c1cccs1)N(CCN1CCCC1)Cc1cc(-c2ccc3[nH]nnc3c2)ccc1F` [Example 56], for which the affinity, expressed as Ki, was 6.51 nM.

The molecule `O=C(c1ccc(F)cc1F)N(CCN1CCCC1)Cc1cc(-c2ccc3[nH]nnc3c2)ccc1F` [Example 57] displayed an inhibitory constant (Ki) of 0.71 nM.

The molecule `CN1C2CCC1CC(N(Cc1cc(-c3ccc4[nH]ncc4c3)ccc1F)C(=O)c1ccc(F)cc1)C2` (centres unmarked) [Example 58] came in with a Ki of 1.23 nM.

On to `CN1CCC(N(Cc2cc(-c3ccc4[nH]c(=O)oc4c3)ccc2F)C(=O)c2ccc(F)cc2)CC1` [Example 59], for which the affinity corresponds to a Ki of 0.89 nM.

On to `CN(C)CCN(Cc1cc(-c2ccc3c(c2)CCN3)ccc1F)C(=O)c1ccc(F)cc1` [Example 60], for which the Ki turned out to be 1.13 nM.

Molecule `CN1CCCC(N(Cc2cc(-c3ccc4[nH]ncc4c3)ccc2F)C(=O)c2ccc(F)cc2)C1` (centres unmarked) [Example 61] registered a Ki of 0.7 nM.

In turn, `CN1CC[C@@H](N(Cc2cc(-c3ccc4[nH]ncc4c3)ccc2F)C(=O)c2ccc(F)cc2)C1` [Example 62] displayed a Ki of 0.75 nM.

In turn, `CN1CC[C@H](N(Cc2cc(-c3ccc4[nH]ncc4c3)ccc2F)C(=O)c2ccc(F)cc2)C1` [Example 63] returned a Ki of 0.58 nM.

`CN1CCCC(N(Cc2cc(-c3ccc4[nH]ncc4c3)ccc2F)C(=O)c2ccc(F)cc2)C1` (centres unmarked) [Example 64] gave a Ki of 0.6 nM.

As to `CN1[C@@H]2CC[C@H]1C[C@H](N(Cc1cc(-c3ccc4[nH]ncc4c3)ccc1F)C(=O)c1ccc(F)cc1)C2` [Example 65], the Ki worked out at 0.9 nM.

Consider `O=C(c1ccc(F)cc1)N(Cc1cc(-c2ccc3[nH]nnc3c2)ccc1F)C1CCNCC1` [Example 66], for which the Ki turned out to be 0.67 nM.

Consider `CC(C)N1CCC(N(Cc2cc(-c3ccc4[nH]nnc4c3)ccc2F)C(=O)c2ccc(F)cc2)CC1` [Example 67, N-[5-(1H-Benzotriazol-5-yl)-2-fluoro-benzyl]-4-fluoro-N-(1-isopropyl-piperidin-4-yl)-benzamide], for which affinity was put at a Ki of 2.16 nM.

The molecule `O=C(c1ccc(F)cc1)N(Cc1cc(-c2ccc3[nH]nnc3c2)ccc1F)C1CCN(C2CC2)CC1` [Example 68, N-[5-(1H-Benzotriazol-5-yl)-2-fluoro-benzyl]-N-(1-cyclopropyl-piperidin-4-yl)-4-fluoro-benzamide] returned a Ki of 3.14 nM.

`CN1CCC(N(Cc2cc(-c3ccc4[nH]nnc4c3)ccc2F)C(=O)c2ccc(F)cc2)CC1` [Example 69, N-[5-(1H-Benzotriazol-5-yl)-2-fluoro-benzyl]-N-(1-methyl-piperidin-4-yl)-4-fluoro-benzamide]: the affinity, expressed as Ki, was 1.35 nM.

Consider `CN1CCC(N(Cc2ccc(F)cc2)Cc2cc(-c3ccc4[nH]ccc4c3)ccc2F)CC1` [Example 70, (4-Fluoro-benzyl)-[2-fluoro-5-(1H-indol-5-yl)-benzyl]-(1-methyl-piperidin-4-yl)-amine], for which the Ki was found to be 0.72 nM.

`CN(C)CCN(Cc1ccc(F)cc1)Cc1cc(-c2ccc3[nH]ccc3c2)ccc1F` [Example 72] registered a Ki of 2.37 nM.
